Publication PMC9653409, “Generative deep learning enables the discovery of a potent and selective RIPK1 inhibitor” (Nature Communications, 2022)

How the values were obtained:
[1] = test system: L929 cells; assay: TZ-induced L929 cell necroptosis model (CCK8); type: cell-based; conditions: Mus musculus
Procedure: (§1) Cell necroptosis protection assays were performed in 96-well cell culture plates. Cells were plated in each well and cultured at 37 °C overnight. […] The cell survival rate was determined using a CCK8 cell viability assay kit and CLARIOstar (v5.61). […] All experiments were performed at least two times, and each EC50 value was expressed as mean ± standard deviation (SD).

[2] = test system: J774A.1 cells; assay: TSZ-induced J774A.1 cell necroptosis model (CCK8); type: cell-based; conditions: Mus musculus, J774.A1
Procedure: as §1

[3] = test system: HT29-vector cells; assay: TSZ-induced necroptosis in HT29-vector cells (CCK8); type: cell-based
Procedure: as §1
The lentiCRISPRv2 vector targeting RIPK1 (sgRNA, 5’- […]-3’) was constructed by the Azenta company. HEK 293 T cells were transfected with lentiCRISPRv2 targeting RIPK1 and empty vector using Hieff Trans^TM Liposomal Transfection Reagent (Yeasen), respectively. […] The concentrated viruses were added to HT29 cells along with 8 μg/mL of polybrene (Yeasen) to enhance transfection efficiency. The infection assay was repeated in the next day under the same conditions. Finally, HT29 cells were screened with 3 μg/mL puromycin. Western blot analysis was used to confirm the RIPK1 deletion.

[4] = test system: kinases that have an inhibitory rate larger than 50%; assay: IC50 against kinases with inhibitory rate larger than 50%; type: biochemical, human; conditions: all except MLK3; read-out: IC50 against all other kinases followed up
Procedure: (§2) In vitro kinase activity assays were conducted through the Kinase Profiling Services provided by Eurofins (Eurofins, France). The protocol for the RIPK1 assay is briefly described as follows (Protocols for other kinases are very similar and can be found in http://www.eurofins.com/pharmadiscovery). RIPK1 kinase was incubated with the test compound in assay buffer containing 8 mM MOPS (pH 7.0), 0.2 mM EDTA, 250 μM […], 10 mM magnesium acetate, and 10 μM [γ-33P]-ATP for 15 min at room temperature. The reaction was initiated by the addition of the Mg/ATP mixture. After incubation for 40 min at room temperature, and the reaction was stopped by the addition of 3% phosphoric acid. A 10 μL portion of the reaction mixture was then spotted onto a P30 filter mat and washed four times for 4 min in 0.425% phosphoric acid and once in methanol prior to drying and scintillation counting.

[5] = molecular target: panel of human kinases (kinase named in endpoint) (Homo sapiens, UniProt O00418); assay: Kinase inhibitory activity profiling of RI-962@10 µM (406 kinases, Eurofins); type: biochemical; conditions: 10 µM; read-out: Activity (%), eEF-2K(h)
panel of human kinases (kinase named in endpoint) (Homo sapiens, UniProt O00418), sequence (O00418 whole entry): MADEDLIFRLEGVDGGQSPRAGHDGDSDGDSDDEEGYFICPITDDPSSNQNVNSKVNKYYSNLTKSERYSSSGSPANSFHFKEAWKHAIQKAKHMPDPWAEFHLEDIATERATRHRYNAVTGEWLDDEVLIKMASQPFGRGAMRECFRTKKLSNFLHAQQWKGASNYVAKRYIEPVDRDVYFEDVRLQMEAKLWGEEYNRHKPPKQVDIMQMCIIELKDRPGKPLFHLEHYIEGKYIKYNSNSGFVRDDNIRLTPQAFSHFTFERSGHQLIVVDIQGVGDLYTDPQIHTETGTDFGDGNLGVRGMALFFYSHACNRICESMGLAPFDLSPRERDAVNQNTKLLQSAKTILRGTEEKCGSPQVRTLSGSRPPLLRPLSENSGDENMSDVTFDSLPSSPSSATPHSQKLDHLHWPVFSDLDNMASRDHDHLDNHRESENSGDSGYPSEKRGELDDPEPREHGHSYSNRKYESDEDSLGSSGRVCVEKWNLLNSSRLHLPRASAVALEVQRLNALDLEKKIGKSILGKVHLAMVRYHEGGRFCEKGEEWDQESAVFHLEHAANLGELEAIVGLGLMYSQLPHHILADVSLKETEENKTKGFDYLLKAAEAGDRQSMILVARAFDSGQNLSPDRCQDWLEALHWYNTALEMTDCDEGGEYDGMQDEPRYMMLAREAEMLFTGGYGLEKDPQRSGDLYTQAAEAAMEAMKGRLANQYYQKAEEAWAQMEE
Procedure: as §2

[6] = molecular target: panel of human kinases (kinase named in endpoint) (Homo sapiens, UniProt O75460); assay: as above; type: biochemical; conditions: 10 µM; read-out: Activity (%), IRE1(h)
panel of human kinases (kinase named in endpoint) (Homo sapiens, UniProt O75460), sequence (O75460 19-977): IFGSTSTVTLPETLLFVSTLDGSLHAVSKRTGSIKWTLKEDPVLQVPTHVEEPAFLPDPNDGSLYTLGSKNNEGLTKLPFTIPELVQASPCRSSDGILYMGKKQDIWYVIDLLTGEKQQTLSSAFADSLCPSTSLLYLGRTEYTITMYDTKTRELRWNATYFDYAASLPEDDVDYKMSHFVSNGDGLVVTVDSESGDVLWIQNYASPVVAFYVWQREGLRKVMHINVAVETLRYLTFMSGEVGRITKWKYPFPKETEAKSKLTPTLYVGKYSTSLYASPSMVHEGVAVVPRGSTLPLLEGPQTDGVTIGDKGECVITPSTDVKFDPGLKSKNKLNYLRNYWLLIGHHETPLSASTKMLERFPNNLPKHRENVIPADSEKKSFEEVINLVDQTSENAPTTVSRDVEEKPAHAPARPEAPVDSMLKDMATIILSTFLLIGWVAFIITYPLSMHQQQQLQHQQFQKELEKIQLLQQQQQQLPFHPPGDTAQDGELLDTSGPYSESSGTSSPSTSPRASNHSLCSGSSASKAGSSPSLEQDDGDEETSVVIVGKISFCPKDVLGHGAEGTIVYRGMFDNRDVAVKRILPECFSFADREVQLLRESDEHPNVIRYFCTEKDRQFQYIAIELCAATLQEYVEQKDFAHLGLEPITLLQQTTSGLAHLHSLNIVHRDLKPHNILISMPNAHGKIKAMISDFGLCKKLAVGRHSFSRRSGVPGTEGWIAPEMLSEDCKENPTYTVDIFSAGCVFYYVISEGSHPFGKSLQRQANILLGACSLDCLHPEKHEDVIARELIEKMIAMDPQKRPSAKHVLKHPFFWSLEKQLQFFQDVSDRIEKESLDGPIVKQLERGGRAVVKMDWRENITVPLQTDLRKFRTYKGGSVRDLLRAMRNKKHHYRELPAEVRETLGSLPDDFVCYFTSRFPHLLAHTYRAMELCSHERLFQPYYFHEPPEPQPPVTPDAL
Procedure: as §2

[7] = molecular target: panel of human kinases (kinase named in endpoint) (Homo sapiens, UniProt P04049); assay: as above; type: biochemical; conditions: 10 µM; read-out: Activity (%), c-RAF(h)
panel of human kinases (kinase named in endpoint) (Homo sapiens, UniProt P04049), sequence (P04049 whole entry): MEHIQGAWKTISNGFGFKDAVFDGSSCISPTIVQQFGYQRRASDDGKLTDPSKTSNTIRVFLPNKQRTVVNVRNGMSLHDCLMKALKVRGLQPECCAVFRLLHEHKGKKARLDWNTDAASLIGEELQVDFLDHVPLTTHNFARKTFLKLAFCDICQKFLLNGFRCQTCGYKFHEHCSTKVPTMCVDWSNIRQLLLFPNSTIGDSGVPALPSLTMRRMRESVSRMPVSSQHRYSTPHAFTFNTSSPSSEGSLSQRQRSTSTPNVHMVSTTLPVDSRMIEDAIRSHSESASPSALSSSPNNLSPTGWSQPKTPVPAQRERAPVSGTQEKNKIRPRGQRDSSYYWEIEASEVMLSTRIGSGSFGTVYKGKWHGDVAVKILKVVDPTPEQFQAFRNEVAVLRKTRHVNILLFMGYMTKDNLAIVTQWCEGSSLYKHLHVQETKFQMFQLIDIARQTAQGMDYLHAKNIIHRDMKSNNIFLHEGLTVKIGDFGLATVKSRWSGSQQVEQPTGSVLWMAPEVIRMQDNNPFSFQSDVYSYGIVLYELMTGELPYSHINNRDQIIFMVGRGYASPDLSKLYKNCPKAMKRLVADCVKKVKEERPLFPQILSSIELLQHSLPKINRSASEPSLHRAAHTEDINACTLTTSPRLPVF
Procedure: as §2

[8] = molecular target: panel of human kinases (kinase named in endpoint) (Homo sapiens, UniProt P49761); assay: as above; type: biochemical; conditions: 10 µM; read-out: Activity (%), CLK3(h)
Procedure: as §2

[9] = molecular target: panel of human kinases (kinase named in endpoint) (Homo sapiens, UniProt Q13554); assay: as above; type: biochemical; conditions: 10 µM; read-out: Activity (%), CaMKIIβ(h)
panel of human kinases (kinase named in endpoint) (Homo sapiens, UniProt Q13554), sequence (Q13554 whole entry): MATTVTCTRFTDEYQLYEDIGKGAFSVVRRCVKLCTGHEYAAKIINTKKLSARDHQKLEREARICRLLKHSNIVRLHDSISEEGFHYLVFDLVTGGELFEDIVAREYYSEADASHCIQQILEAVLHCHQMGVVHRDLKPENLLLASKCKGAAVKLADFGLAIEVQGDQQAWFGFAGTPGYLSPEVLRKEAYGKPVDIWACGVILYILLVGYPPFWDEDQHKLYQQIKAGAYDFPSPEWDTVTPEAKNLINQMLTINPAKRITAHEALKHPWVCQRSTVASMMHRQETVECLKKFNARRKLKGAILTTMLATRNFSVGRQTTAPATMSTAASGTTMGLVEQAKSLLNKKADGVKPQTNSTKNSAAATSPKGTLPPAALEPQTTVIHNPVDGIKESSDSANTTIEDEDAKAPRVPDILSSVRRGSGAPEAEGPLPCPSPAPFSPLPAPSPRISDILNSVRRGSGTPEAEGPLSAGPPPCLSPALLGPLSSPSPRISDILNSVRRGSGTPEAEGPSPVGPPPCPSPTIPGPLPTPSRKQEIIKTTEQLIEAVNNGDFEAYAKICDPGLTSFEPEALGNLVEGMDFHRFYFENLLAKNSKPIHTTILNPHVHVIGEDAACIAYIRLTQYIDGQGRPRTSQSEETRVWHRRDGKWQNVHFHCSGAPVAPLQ
Procedure: as §2

[10] = molecular target: panel of human kinases (kinase named in endpoint) (Homo sapiens, UniProt Q13555); assay: as above; type: biochemical; conditions: 10 µM; read-out: Activity (%), CaMKIIγ(h)
Procedure: as §2

[11] = molecular target: panel of human kinases (kinase named in endpoint) (Homo sapiens, UniProt Q15303); assay: as above; type: biochemical; conditions: 10 µM; read-out: Activity (%), ErbB4(h)
Procedure: as §2

[12] = molecular target: panel of human kinases (kinase named in endpoint) (Homo sapiens, UniProt Q86V86); assay: as above; type: biochemical; conditions: 10 µM; read-out: Activity (%), Pim-3(h)
Procedure: as §2

[13] = molecular target: panel of human kinases (kinase named in endpoint) (Homo sapiens, UniProt Q86Y07); assay: as above; type: biochemical; conditions: 10 µM; read-out: Activity (%), VRK2(h)
panel of human kinases (kinase named in endpoint) (Homo sapiens, UniProt Q86Y07), sequence (Q86Y07 whole entry): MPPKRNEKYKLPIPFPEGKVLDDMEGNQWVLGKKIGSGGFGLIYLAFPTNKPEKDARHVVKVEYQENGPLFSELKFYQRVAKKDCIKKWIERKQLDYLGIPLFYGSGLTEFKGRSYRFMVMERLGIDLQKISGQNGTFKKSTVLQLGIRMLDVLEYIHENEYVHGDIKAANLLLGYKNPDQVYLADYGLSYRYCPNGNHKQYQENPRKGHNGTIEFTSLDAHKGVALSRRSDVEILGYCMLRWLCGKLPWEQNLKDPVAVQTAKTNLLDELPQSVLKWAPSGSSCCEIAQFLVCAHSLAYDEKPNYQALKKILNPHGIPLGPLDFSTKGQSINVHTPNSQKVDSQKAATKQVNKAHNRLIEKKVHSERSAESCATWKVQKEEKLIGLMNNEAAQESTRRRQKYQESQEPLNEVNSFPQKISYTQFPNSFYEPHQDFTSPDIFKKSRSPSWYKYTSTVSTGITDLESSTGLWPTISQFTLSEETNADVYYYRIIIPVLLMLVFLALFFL
Procedure: as §2

[14] = molecular target: panel of human kinases (kinase named in endpoint) (Homo sapiens, UniProt Q8IVW4); assay: as above; type: biochemical; conditions: 10 µM; read-out: Activity (%), CDKL3(h)
Procedure: as §2

[15] = molecular target: panel of human kinases (kinase named in endpoint) (Homo sapiens, UniProt Q8NE63); assay: as above; type: biochemical; conditions: 10 µM; read-out: Activity (%), HIPK4(h)
Procedure: as §2

[16] = molecular target: panel of human kinases (kinase named in endpoint) (Homo sapiens, UniProt Q8WXR4); assay: as above; type: biochemical; conditions: 10 µM; read-out: Activity (%), MYO3B(h)
panel of human kinases (kinase named in endpoint) (Homo sapiens, UniProt Q8WXR4), sequence (Q8WXR4 whole entry): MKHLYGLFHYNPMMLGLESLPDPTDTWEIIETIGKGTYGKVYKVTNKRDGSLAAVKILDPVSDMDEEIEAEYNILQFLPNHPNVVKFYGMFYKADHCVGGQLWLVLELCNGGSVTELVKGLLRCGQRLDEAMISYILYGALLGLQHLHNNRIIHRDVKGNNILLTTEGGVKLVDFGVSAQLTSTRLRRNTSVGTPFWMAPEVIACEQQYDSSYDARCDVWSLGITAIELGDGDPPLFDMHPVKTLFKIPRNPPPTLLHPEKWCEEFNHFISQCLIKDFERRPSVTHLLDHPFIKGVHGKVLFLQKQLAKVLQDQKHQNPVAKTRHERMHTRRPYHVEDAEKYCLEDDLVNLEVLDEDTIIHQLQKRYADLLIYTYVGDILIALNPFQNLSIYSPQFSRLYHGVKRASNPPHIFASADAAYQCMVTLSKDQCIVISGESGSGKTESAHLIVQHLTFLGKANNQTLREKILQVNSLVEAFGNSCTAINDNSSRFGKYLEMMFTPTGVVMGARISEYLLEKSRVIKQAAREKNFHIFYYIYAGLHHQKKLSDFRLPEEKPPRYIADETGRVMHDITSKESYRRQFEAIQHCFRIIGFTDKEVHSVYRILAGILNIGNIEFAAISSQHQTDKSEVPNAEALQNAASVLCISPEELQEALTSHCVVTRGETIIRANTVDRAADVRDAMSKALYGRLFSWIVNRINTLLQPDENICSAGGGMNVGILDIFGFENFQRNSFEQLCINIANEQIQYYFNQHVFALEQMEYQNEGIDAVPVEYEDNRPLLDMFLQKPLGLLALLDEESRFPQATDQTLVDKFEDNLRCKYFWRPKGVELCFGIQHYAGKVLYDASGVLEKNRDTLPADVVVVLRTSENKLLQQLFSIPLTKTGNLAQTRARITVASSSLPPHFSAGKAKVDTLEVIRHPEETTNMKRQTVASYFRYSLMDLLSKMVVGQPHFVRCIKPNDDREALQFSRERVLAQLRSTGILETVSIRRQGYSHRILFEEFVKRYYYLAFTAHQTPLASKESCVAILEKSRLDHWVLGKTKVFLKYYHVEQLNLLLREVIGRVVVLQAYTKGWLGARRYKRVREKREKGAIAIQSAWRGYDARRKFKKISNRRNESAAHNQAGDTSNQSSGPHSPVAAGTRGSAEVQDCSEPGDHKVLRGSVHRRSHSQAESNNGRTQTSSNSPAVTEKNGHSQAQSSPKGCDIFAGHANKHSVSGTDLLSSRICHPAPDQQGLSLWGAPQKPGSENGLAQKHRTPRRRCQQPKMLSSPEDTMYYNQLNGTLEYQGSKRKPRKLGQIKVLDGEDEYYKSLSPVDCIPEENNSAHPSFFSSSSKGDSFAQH
Procedure: as §2

[17] = molecular target: panel of human kinases (kinase named in endpoint) (Homo sapiens, UniProt Q99683); assay: as above; type: biochemical; conditions: 10 µM; read-out: Activity (%), ASK1(h)
Procedure: as §2

[18] = molecular target: panel of human kinases (kinase named in endpoint) (Homo sapiens, UniProt Q9Y243); assay: as above; type: biochemical; conditions: 10 µM; read-out: Activity (%), PKBγ(h)
Procedure: as §2

## CC(C)C(=O)Nc1nc2cc(-c3ccc4c(c3)c(C(=O)NC(C)c3ccccc3)cn4C)ccn2n1 (centres unmarked) [RI-962]
[1]; L929, 0.000056 μM
  viability at 56 pM: 19.1%
[1]; L929, 0.000169 μM
  viability at 0.000169 µM: 22.9%
[1]; L929, 0.000508 μM
  viability at 0.000508 µM: 24.8%
[1]; L929, 0.001524 μM
  viability at 0.001524 µM: 35.2%
[1]; L929, 0.004572 μM
  viability at 0.004572 µM: 62.2%
[1]; L929, 0.013717 μM
  viability at 0.013717 µM: 83.1%
[1]; L929, 0.041152 μM
  viability at 0.041152 µM: 89.4%
[1]; L929, 0.123457 μM
  viability at 0.123457 µM: 105%
[1]; L929, 0.370370 μM
  viability at 0.37037 µM: 98.5%
[1]; L929, 1.111111 μM
  viability at 1.11111 µM: 103%
[1]; L929, 3.333333 μM
  viability at 3.33333 µM: 99.1%
[1]; L929, 10.000000 μM
  viability at 10 µM: 91.6%
[1]; L929 treated with TZ, 24 h
  EC50: 4.2 nM
[2]; 0.000056 μM
  viability at 56 pM: 1.06%
[2]; 0.000169 μM
  viability at 0.000169 µM: 1.51%
[2]; 0.000508 μM
  viability at 0.000508 µM: 3.42%
[2]; 0.001524 μM
  viability at 0.001524 µM: 11.4%
[2]; 0.004572 μM
  viability at 0.004572 µM: 24.7%
[2]; 0.013717 μM
  viability at 0.013717 µM: 48.7%
[2]; 0.041152 μM
  viability at 0.041152 µM: 85.3%
[2]; 0.123457 μM
  viability at 0.123457 µM: 88.9%
[2]; 0.370370 μM
  viability at 0.37037 µM: 93%
[2]; 1.111111 μM
  viability at 1.11111 µM: 98.3%
[2]; 3.333333 μM
  viability at 3.33333 µM: 91.5%
[2]; J774A.1 treated with TSZ, 24 h
  EC50: 11.4 nM
[3]; 0.000169 μM + TSZ, read-out: Cell Viability (%) Average
  viability at 0.000169 µM: 34.3%
[3]; 0.000508 μM + TSZ, read-out: Cell Viability (%) Average
  viability at 0.000508 µM: 38.1%
[3]; 0.001524 μM + TSZ, read-out: Cell Viability (%) Average
  viability at 0.001524 µM: 41.2%
[3]; 0.004572 μM + TSZ, read-out: Cell Viability (%) Average
  viability at 0.004572 µM: 64.8%
[3]; 0.013717 μM + TSZ, read-out: Cell Viability (%) Average
  viability at 0.013717 µM: 108%
[3]; 0.041152 μM + TSZ, read-out: Cell Viability (%) Average
  viability at 0.041152 µM: 109%
[3]; 0.123457 μM + TSZ, read-out: Cell Viability (%) Average
  viability at 0.123457 µM: 110%
[3]; 0.370370 μM + TSZ, read-out: Cell Viability (%) Average
  viability at 0.37037 µM: 113%
[3]; 1.111111 μM + TSZ, read-out: Cell Viability (%) Average
  viability at 1.11111 µM: 102%
[3]; HT29-vector, TSZ
  EC50: 4.2 ± 0.2 nM
[4]
  IC50: > 10000 nM
[5]
  activity at 10 µM: 112%
[6]
  activity at 10 µM: 115%
[7]
  activity at 10 µM: 114%
[8]
  activity at 10 µM: 94%
[9]
  activity at 10 µM: 109%
[10]
  activity at 10 µM: 93%
[11]
  activity at 10 µM: 98%
[12]
  activity at 10 µM: 111%
[13]
  activity at 10 µM: 89%
[14]
  activity at 10 µM: 84%
[15]
  activity at 10 µM: 71%
[16]
  activity at 10 µM: 76%
[17]
  activity at 10 µM: 97%
[18]
  activity at 10 µM: 95%
